From US20120282377A1, “Methods and Formulations for Inhibiting Degradation of Photosensitive Sweeteners and Sweetener Enhancers” (priority 2011, published 2012)

Assays:
Type in all cases: physicochemical
[1] = Stability of sweetness enhancer to sunlight exposure in PET bottle with and without UV barrier (Example 1); details: 25 mg/L solution, 395 Langleys (Atlas Sun Test XLS+)
Description: Sweetness enhancer 3-((4-amino-2,2 -dioxido-1H-benzo [c][1,2,6]thiadiazin-5-yl)oxy)-2,2-dimethyl-N-propylpropanamide was evaluated for stability to sunlight exposure when formulated into a beverage packaged in PET packaging (bottle) with and without a UV barrier. The UV barrier PET bottle contained a UV absorbent compound that absorbs light up to approximately 390 nm. When a 25 mg/L solution of 3-((4-amino-2,2-dioxido-1H-benzo[c][1,2,6]thiadiazin-5-yl)oxy)-2,2-dimethyl-N-propylpropanamide was exposed to 395 Langleys of radiation (Atlas Sun Test XLS+Instrument) in a clear PET bottle with no UV barrier, 92% of 3-((4-amino-2,2 -dioxido-1H-benzo [c][1,2,6]thiadiazin-5-yl)oxy)-2,2-dimethyl-N-propylpropanamide was lost to degradation. The light exposure in this experiment was approximately equivalent to 24 hours of continuous irradiation or 2-3 days of normal sunlight irradiation (due to day/night cycle). In contrast, when the same experiment was carried out in a UV barrier PET bottle, only 10% of the 3-((4-amino-2,2-dioxido-1H-benzo[c][1,2,6]thiadiazin-5-yl)oxy)-2,2-dimethyl-N-propylpropanamide was lost to degradation.

[2] = Photodegradation on exposure to sunlight / UV light (background statements); details: sunlight for 2-3 days
Text: Monatin (2-amino-4-carboxy-4-hydroxy-5-(3-indolyl)-pentanoic acid or 4-hydroxy-4-(3-indolylmethyl)-glutamic acid) is a natural sweetener. Monatin contains two chiral centers and therefore has four potential isomeric configurations: R,R-; S,S-; R,S-; and S,R-monatin. Different stereoisomers have different sweetening characteristics. Amino et al. have reported that the sweetness intensity is dependent on the optical purity of each stereoisomer (U.S. Patent Publication No. 2005/0020508).

[3] = Sucrose enhancer stability in prototype beverage formulation, UV irradiation in Atlas SunTest XLS+ (Example 6)
Description: The stability of sucrose enhancer 3-((4-amino-2,2-dioxido-1H-benzo[c][1,2,6]thiadiazin-5-yl)oxy)-2,2-dimethyl-N-propylpropanamide in regular PET bottles and PET bottles with UV barrier was evaluated. A control formulation was used that contained 106 mg sucrose enhancer in 4163 mg of a prototype beverage formulation. The prototype beverage formulation contained water, HFCS-55, citric acid, potassium citrate, EDTA, salts and vitamins. The samples were exposed to UV light using different Langley irradiation energy exposure at 40° C. in Atlas SunTest XLS+chamber.

[4] = prototype beverage formulation (control), PET, 0 Langley
[5] = prototype beverage formulation, PET with UV barrier, 66 Langley, 40° C.
[6] = prototype beverage formulation, PET with UV barrier, 197 Langley, 40° C.
[7] = prototype beverage formulation, PET with UV barrier, 395 Langley, 40° C.
[8] = prototype beverage formulation, PET, 66 Langley, 40° C.
[9] = prototype beverage formulation, PET, 197 Langley, 40° C.
[10] = prototype beverage formulation, PET, 395 Langley, 40° C.

CCCNC(=O)C(C)(C)COc1cccc2c1C(N)=NS(=O)(=O)N2 [Sucrose enhancer, 3-((4-amino-2,2-dioxido-1H-benzo[c][1,2,6]thiadiazin-5-yl)oxy)-2,2-dimethyl-N-propylpropanamide]
lost to degradation ([1]; UV barrier PET bottle): 10%
lost to degradation ([1]; clear PET bottle with no UV barrier): 92%
degradation upon exposure to sunlight [2]: completely degraded to inactive ingredients
Loss of Sucrose Enhancer (%) [3, 4]: 0%
Remaining Sucrose Enhancer (%) [3, 4]: 100%
Remaining Sucrose Enhancer (ppm) [3, 4]: 21.5 ppm
Loss of Sucrose Enhancer (%) [3, 5]: 4%
Remaining Sucrose Enhancer (%) [3, 5]: 96%
Remaining Sucrose Enhancer (ppm) [3, 5]: 20.7 ppm
Loss of Sucrose Enhancer (%) [3, 6]: 5%
Remaining Sucrose Enhancer (%) [3, 6]: 95%
Remaining Sucrose Enhancer (ppm) [3, 6]: 20.5 ppm
Loss of Sucrose Enhancer (%) [3, 7]: 10%
Remaining Sucrose Enhancer (%) [3, 7]: 90%
Remaining Sucrose Enhancer (ppm) [3, 7]: 19.3 ppm
Loss of Sucrose Enhancer (%) [3, 8]: 37%
Remaining Sucrose Enhancer (%) [3, 8]: 63%
Remaining Sucrose Enhancer (ppm) [3, 8]: 13.6 ppm
Loss of Sucrose Enhancer (%) [3, 9]: 75%
Remaining Sucrose Enhancer (%) [3, 9]: 25%
Remaining Sucrose Enhancer (ppm) [3, 9]: 5.4 ppm
Loss of Sucrose Enhancer (%) [3, 10]: 92%
Remaining Sucrose Enhancer (%) [3, 10]: 7.9%
Remaining Sucrose Enhancer (ppm) [3, 10]: 1.7 ppm
